Laboratory results: patent US20260345584A1, “METHODS AND PHARMACEUTICAL COMPOSITIONS FOR TREATING CHEMOTHERAPY-INDUCED PERIPHERAL NEUROPATHY WITH EG5 INHIBITORS” (UNIVERSITY OF MIAMI, priority 2023, published 2026)

Key:
[1] = tested on: caudal fin keratinocytes (mitosis); assay: Keratinocyte mitosis, 12 hr time-lapse imaging of h2a:h2a-GFP fish; type: in vivo, zebrafish
Method: (§1) Fish were anesthetized in 2-phenoxyethanol (1:1000) in Ringer's solution prior to imaging and mounted in 1.2% agarose. EB3-GFP and Tau-Bfp2 were imaged with a scan speed kept at the maximum level in single slice mode with […] for a total of 60s to capture microtubule dynamics. h2a:H2A-GFP time-lapse recordings were produced (Zeiss LSM880 AiryScan confocal microscope) with 1 μm sections recorded every 10 min for 12 hr using 800×800 pixels. All other live fish were imaged using 1024×1024 pixels.
(§2) Cell divisions and cell death were manually counted in 12 hr movie recordings. The caudal fin was divided into 6 quadrants and individual cells in each quadrant were manually followed over 12 hr at least 3 times sequentially to capture cell divisions and dying cell behaviors.
To examine the effects of EMD534085 on mitosis, cell divisions in keratinocytes expressing nuclear h2a-h2a:GFP were quantified using 12 hr time-lapse imaging. […] The few divisions present were mostly restricted to the distal notochord region, with an average of 0.96±0.20/12 hr divisions at 3dpf and 1.16±0.44/12 hr at 6dpf in this region (shown in FIG. 6A).

[2] = tested on: caudal fin keratinocytes (cell death); assay: Keratinocyte cell death, 12 hr time-lapse imaging; type: in vivo, zebrafish
Method: as §1, §2

[3] = tested on: caudal fin keratinocytes (dfMTs); assay: dfMT formation (detyrosinated fasciculated looped microtubules) in zebrafish caudal fin keratinocytes; type: in vivo
Method: The stock solution was divided into 20-30 μl aliquots and stored at −20 °C until use (maximal 6 months). Immediately prior to use, paclitaxel was diluted in Ringer's solution and added to dechorionated larval zebrafish. The larval fish were placed individually or in small groups into wells of a 12-well plate containing the treatment solutions. The control group was 0.05% DMSO. Plates were incubated at 28.5 °C and protected from light. Treatment lengths are indicated in the Drawings, Description of the Drawings, and Examples where appropriate. […] EMD534085, Eg5 inhibitor (MedChemExpress, Cat. No. HY-15000) was diluted in 100% DMSO to make a 10 mM stock solution and stored at −20 °C. […] The solutions were exchanged every 48 hr.
Larval fish were transferred into […] glass vials and fixed in 4% paraformaldehyde (PFA)/1× Phosphate-buffered saline (PBS) for 1.5 hr at room temperature, with gentle rocking. Following a 5-minute incubation in 1×PBS+0.1% Tween-20 (PBST), zebrafish were permeabilized in 1×PBS+0.1% Triton X-100 for 10-30 min. Larval fish were transferred into 2 ml reaction tubes and incubated in blocking buffer (1×PBST+5% BSA) for 30 min at room temperature, with rocking. Larval fish were further incubated overnight in antibody solution (Millipore Sigma, Cat. No. AB3201, 1:300 rabbit anti-GluTub; Sigma, Cat No. T6793, 1:500 mouse anti-acetylated tubulin) in blocking buffer at 4 °C, on a rotator. The next morning, larval fish were transferred into 6-well plates and washed 4×15 min in 1×PBST at room temperature, with rocking. This was followed by incubation in secondary antibody (goat anti-rabbit Cy5, Abcam, Cat. No. ab97077; goat anti-mouse Cy3, Abcam, Cat. No. ab97035) and 1:10,000 Hoechst 33342 (ThermoFisher Scientific, Cat. No. 62249, 20 mM solution) in blocking buffer for 1 hr at room temperature, with rocking. Fish were covered to avoid bleaching. Fish were washed for 4×15 min in 1×PBST at room temperature, with rocking, and immediately mounted for imaging on glass bottom petri dishes (Spectrum Laboratory Products, Cat. No. 750-10403-UE) using 1% agarose (Thermo Fisher Scientific, Cat. No. 16520050). A 1:200 dilution was used for mouse alpha-tubulin antibody (Proteintech, Cat. No. 66031-1) and a 1:1,000 dilution of donkey anti-mouse IgG Alexa488 (ThermoFisher Scientific, Cat. No. A-21202) for secondary detection. For Nox1 immunostaining, a 1:300 dilution of primary antibody (Anti-NOX1 Rabbit Polyclonal Antibody, Avantar, Cat. No. 102164-796) and a 1:1,000 dilution of secondary goat anti-rabbit Cy2 (Abcam, Cat. No. ab6940) antibody was used. Eg5 antibody (Abcam, Cat. No. 61199) was used at a 1:100 and secondary goat anti-rabbit Cy2 (Abcam, Cat. No. ab6940) at 1:1,000 dilution.
CRISPR oligos targeting kif11 were designed using the IDT CRISPR design tool (https://www.idtdna.com/site/order/designtool/index/CRISPR_CUSTOM). The oligo (5′-[…] (SEQ ID NO: 21) was designed to anneal within exon 5 of 23 exons total in zebrafish kif11 with expected mutations ~ position 270 bp in the sequenced region using the following primers for PCR amplification: Fwd 5′-[…]-3′ (SEQ ID NO: 22) and Rev 5′-[…]-3′ (SEQ ID NO: 23). The forward primer was used for sequencing and yielded deletions in transiently injected embryos, as shown in example below in which single zebrafish were sequenced (FIG. 10).
The CRISPR oligo was injected using the Alt-R system (IDT, https://www.idtdna.com/pages/technology/crispr/crispr-genome-editing/Alt-R-systems/cas9), which has provided highly reliable and efficient zebrafish knockout results as used herein. The IDT-recommended protocol (below) was used for CRISPR oligo preparations. Fertilized eggs were injected ~15 minutes post fertilization with CRISPR oligos to ensure maximal efficiency.
Cell counting in the caudal fin was performed in three 100 μm^2 boxes in the dorsal, medial and ventral caudal fin (~100 μm from the edge). […]

[4] = tested on: HyPer oxidation in keratinocytes; assay: Compartmentalized HyPer oxidation (nucleus, plasma membrane) in keratinocytes; type: in vivo, zebrafish; details: paclitaxel, alone or with EMD534085; for nuclear HyPer oxidation: nucleus
Method: HyPer fluorescence was measured in the oxidized (505 nm) and unoxidized (420 nm) channels by using the region of interest (ROI) function in ZEN Black (Zeiss) whereby ROIs were selected inside highly magnified mitochondria (HyPer-mito), cytoplasm (HyPer-cyto) or the plasma membrane (HyPer-CAAX). The data was exported, and ratios determined in Excel. H2O2 measurements in zebrafish transiently injected with tp63:Hyper were manually performed by placing spot objects in Imaris 9.5.1 onto individual cells such that the spots extended to the lateral edges. Fluorescence intensities were measured inside the spots and 505 nm/420 nm ratios were subsequently calculated.
These findings supported a role for Eg5 in nuclear X-ROS production as a result of microtubule fasciculation and increased mechanical tension.

[5] = 22 μM paclitaxel, alone or with EMD534085, 96 hr

Row | SMILES | mitotic divisions per animal ([1]; EMD534085 alone, 96 hr) | cell death ([2]; EMD534085 alone, 96 hr) | animals with dfMTs ([3]; 25 μM EMD534085 alone) | number of dfMT-harboring keratinocytes per animal ([3]; EMD534085 alone, 96 hr) | nuclear HyPer oxidation [4] | plasma membrane HyPer oxidation [4] | mitotic divisions per animal ([1]; 100 nM paclitaxel, 96 hr) | mitotic divisions per animal [1, 5] | cell death ([2]; 100 nM paclitaxel, alone or with EMD534085, 96 hr) | cell death [2, 5] | dfMT-positive keratinocytes ([3]; 100 nM paclitaxel) | animals with dfMTs ([3]; 100 nM paclitaxel, alone or with 25 μM EMD534085) | number of dfMT-harboring keratinocytes per animal ([3]; 100 nM paclitaxel, alone or with 25 μM EMD534085, 96 hr) | animals with dfMT ([3]; 22 μM paclitaxel, 48 hr) | keratinocytes with dfMTs ([3]; 22 μM paclitaxel, 48 hr) | keratinocytes with dfMTs ([3]; 22 μM paclitaxel, 96 hr) | animals with dfMT ([3]; 22 μM paclitaxel, 96 hr (FIG. 1I)) | animals with dfMTs ([3]; 22 μM paclitaxel, alone or with 25 μM EMD534085) | number of dfMT-harboring keratinocytes per animal ([3]; 22 μM paclitaxel, alone or with 25 μM EMD534085, 96 hr) | dfMT presence ([3]; 3 hr paclitaxel)
1 | CN(C)CCNC(=O)NC[C@H]1CC[C@@H]2[C@H](O1)c1cc(C(F)(F)F)ccc1N[C@H]2c1ccccc1 [EMD534085] | 1.27±0.46 /12 hr | 0.81±0.26 dying cells/caudal fin | 0% | 0±0 cells/animal | Nuclear HyPer oxidation was reduced upon co-administration of EMD534085 | without effects on plasma membrane oxidation |  |  |  |  |  |  |  |  |  |  |  |  |  | 
2 | CC(=O)O[C@H]1C(=O)[C@@]2(C)[C@H]([C@H](OC(=O)c3ccccc3)[C@]3(O)C[C@H](OC(=O)[C@H](O)[C@@H](NC(=O)c4ccccc4)c4ccccc4)C(C)=C1C3(C)C)[C@]1(OC(C)=O)CO[C@@H]1C[C@@H]2O [paclitaxel] |  |  |  |  | increased oxidation within the nucleus | not at the plasma membrane | 0.72±0.423 | 1.4±0.67 | 0.18±0.18 dying cells/caudal fin | 0.6±0.3 dying cells/caudal fin | 0.4±0.21 dfMT-positive keratinocytes/100 μm^2 | 20% | 0.4±0.21 cells/animal | ~ 45% | 3.64±1.28 keratinocytes/100 μm^2 | 7.7±1.6 keratinocytes/100 μm^2 | ~ 90% | 65.22% | 6.957±1.49 cells/animal | never
